Source: patent publication US20260334439A1, “BCAT2 INHIBITORS” (Agios Pharmaceuticals, Inc., priority 2023, published 2026)

The molecules below were run against T1, BCAT2 (Homo sapiens, UniProt O15382) (assay: BCAT2 in vitro enzyme inhibition assay (hBCAT2, glutamate dehydrogenase/diaphorase/resazurin coupled fluorescence read)). Details: hBCAT2, 1 h preincubation at 25° C., one hour reaction; average where tested multiple times.
T1 sequence (O15382 28-392): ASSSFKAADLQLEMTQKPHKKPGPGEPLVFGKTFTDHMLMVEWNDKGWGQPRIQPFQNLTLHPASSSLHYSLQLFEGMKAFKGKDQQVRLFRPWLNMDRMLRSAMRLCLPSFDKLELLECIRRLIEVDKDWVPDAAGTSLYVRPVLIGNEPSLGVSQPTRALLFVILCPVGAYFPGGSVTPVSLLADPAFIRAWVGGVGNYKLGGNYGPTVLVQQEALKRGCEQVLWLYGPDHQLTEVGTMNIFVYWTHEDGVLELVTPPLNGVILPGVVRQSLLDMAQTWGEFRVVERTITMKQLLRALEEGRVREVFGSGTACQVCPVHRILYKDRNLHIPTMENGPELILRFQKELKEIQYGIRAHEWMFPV
Type: biochemical
Experimental: • 2×Buffer: 200 mM Tris pH 8.0, 300 mM NaCl, 0.1% BSA • 1.67×hBCAT2 Enzyme Mix: 0.33 μg/mL hBCAT2, 1× Buffer • 2.5×Substrate Mix: 460 µM L-leucine, 420 µM α-KetoGlutarate, 10 U/mL glutamate dehydrogenase, 10 mM NAD, […] diaphorase, […] Resazurin
BCAT2 enzyme stock solution was diluted to prepare a 1.67×hBCAT2 Enzyme Mix. 1 μL of test compound was first added to the reaction wells followed by 30 μL of 1.67×hBCAT2 Enzyme Mix and incubated at room temperature (25° C.) for one hour. Meanwhile the Substrate Mix was prepared. The reaction was initiated by the addition of 20 μL of the 2.5×Substrate Mix, bringing the final reaction mix of all components to 1×. Reactions were quenched after one hour by the addition of 25 μL of 6% SDS and reaction progress was measured via fluorescence read (Ex 540/Em 590).
Test compounds were prepared at 50×final concentration in DMSO, 1 to 3 dilutions were made for 10 points. The compounds were added to the assay as a 1 to 50 dilution (1 μL in 50 μL) to yield a top assay final concentration of 100 μM, decreasing 3-fold for 10 points. Each compound dilution series test also included an assay max (1 μL DMSO Added in lieu of compound, Full Reaction Components Included) and Min (1 μL DMSO Added in lieu of compound, 30 μl of 1.67×hBCAT2 Enzyme Mix replated by 30 μL of 1×Buffer). All tests were performed in technical duplicate.
Where a compound was tested multiple times, the average value of the tests is reported.

IC50 [µM]	Structure (SMILES)
< 0.1	O=C(N[C@H]1CCC[C@@H](n2c(-c3ncccc3OC(F)F)nc3cnc(-c4nc[nH]n4)cc32)C1)c1cc(Cl)ccc1OC(F)F [compound 66]
0.5 to 1	CN1C[C@@H](NC(=O)c2cc(F)ccn2)C[C@@H](n2c(-c3ccccc3OC(F)F)nc3cnc(-c4nc[nH]n4)cc32)C1 [compound 140]
< 0.1	CC(C)Oc1ccc(Cl)cc1C(=O)N[C@H]1CCC[C@@H](n2c(-c3ncccc3OC(F)F)nc3cnc(-c4nc[nH]n4)cc32)C1 [compound 65]
> 1	CN1C[C@@H](NC(=O)c2cc(Cl)ccn2)C[C@@H](n2c(-c3ccccc3OCCO)nc3ccc(-c4ncccn4)cc32)C1 [Example 235, 4-chloro-N-((3S,5R)-5-(2-(2-(2-hydroxyethoxy)phenyl)-6-(pyr-imidin-2-yl)-1H-benzo[d]imid-azol-1-yl)-1-methylpiperidin-3-yl)picolinamide]
< 0.1	CN1C[C@H](NC(=O)c2cc(F)ccc2F)C[C@H](n2c(-c3ccccc3OCCO)nc3cnc(-c4ncco4)cc32)C1 [Example 158, 2,5-difluoro-N-((3R,5S)-5-(2-(2-(2-hydroxyethoxy)phenyl)-6-(oxazol-2-yl)-1H-imidazo[4,5-c]pyridin-1-yl)-1-methylpiperidin-3-yl)benzamide]
0.1 to 0.5	O=C(N[C@H]1CCC[C@@H](n2c(-c3ncccc3F)nc3ccc(-c4nc[nH]n4)cc32)[C@@H]1O)c1cc(F)ccc1F [Example 222, 2,5-difluoro-N-((1S,2R,3R)-3-(2-(3-fluoropyridin-2-yl)-6-(1H-1,2,4-triazol-3-yl)-1H-benzo[d]imidazol-1-yl)-2-hydroxycyclo-hexyl)benzamide]
< 0.1	O=C(N[C@H]1CCC[C@@H](n2c(-c3ccccc3OCCO)nc3ccc(-c4nc[nH]n4)cc32)C1)c1cc(Cl)ccc1F [Example 229, 5-chloro-2-fluoro-N-((1S,3R)-3-(2-(2-(2-hydroxyethoxy)phenyl)-6-(1H-1,2,4-triazol-3-yl)-1H-benzo[d]imidazol-1-yl)cyclohex-yl)benzamide]
< 0.1	CN1C[C@@H](NC(=O)c2cc(Cl)ccn2)C[C@@H](n2c(-c3ccccc3OCCO)nc3cnc(-c4ncccn4)cc32)C1 [Example 165, 4-chloro-N-((3S,5R)-5-(2-(2-(2-hydroxyethoxy)phenyl)-6-(pyrimidin-2-yl)-1H-imidazo[4,5-c]pyridin-1-yl)-1-methylpiperidin-3-yl)picolinamide]
< 0.1	O=C(N[C@@H]1C[C@H](n2c(-c3ccccc3OCCO)nc3ccc(-c4nc[nH]n4)cc32)CC(F)(F)C1)c1cc(F)ccn1 [Example 231, N-((1R,5S)-3,3-difluoro-5-(2-(2-(2-hydroxyethoxy)phenyl)-6-(1H-1,2,4-triazol-3-yl)-1H-benzo[d]imidazol-1-yl)cyclohexyl)-4-fluoropicolinamide]
< 0.1	CCN1C[C@H](NC(=O)c2cc(F)ccn2)C[C@H](n2c(-c3ccccc3F)nc3cnc(-c4nc[nH]n4)cc32)C1 [Example 148, N-((3R,5S)-1-ethyl-5-(2-(2-fluorophenyl)-6-(1H-1,2,4-triazol-3-yl)-1H-imidazo[4,5-c]pyridin-1-yl)piperidin-3-yl)-4-fluoropicolinamide]
< 0.1	O=C(N[C@H]1CCC[C@@H](n2c(-c3ncccc3OC(F)F)nc3cnc(-c4nc[nH]n4)cc32)C1)c1cc(F)ccc1F [compound 61]
> 1	CN1C[C@@H](NC(=O)c2cc(F)ccn2)C[C@@H](n2c(-c3ccccc3OCCO)nc3ccc(-c4ncccn4)cc32)C1 [Example 237, 4-fluoro-N-((3S,5R)-5-(2-(2-(2-hydroxyethoxy)phenyl)-6-(pyr-imidin-2-yl)-1H-benzo[d]imid-azol-1-yl)-1-methylpiperidin-3-yl)picolinamide]
> 1	COc1ccc(Cl)cc1C(=O)N[C@@H]1C[C@@H](O)C[C@H](n2c(CC(C)C)nc3cnc(-c4ncccn4)cc32)C1 [Example 112, 5-chloro-N-((1S,3R,5R)-3-hydroxy-5-(2-isobutyl-6-(pyrimidin-2-yl)-1H-imidazo[4,5-c]pyridin-1-yl)cyclohexyl)-2-methoxybenzamide]
0.1 to 0.5	CN1C[C@H](NC(=O)c2cc(F)ccn2)C[C@H](n2c(-c3ccccc3OCCO)nc3ccc(-c4ncccn4)cc32)C1 [Example 236, 4-fluoro-N-((3R,5S)-5-(2-(2-(2-hydroxyethoxy)phenyl)-6-(pyr-imidin-2-yl)-1H-benzo[d]imid-azol-1-yl)-1-methylpiperidin-3-yl)picolinamide]
> 1	CC(CCO)Cc1nc2cnc(-c3nc[nH]n3)cc2n1[C@@H]1CCC[C@H](NC(=O)c2cc(Cl)ccn2)C1 (stereo partly drawn) [Example 96, 4-chloro-N-((1S,3R)-3-(2-(4-hydroxy-2-methylbutyl)-6-(1H-1,2,4-triazol-3-yl)-1H-imidazo[4,5-c]pyridin-1-yl)cyclohexyl)picolinamide]
< 0.1	O=C(N[C@H]1CCC[C@@H](n2c(-c3ccccc3OC(F)F)nc3cnc(-c4nc[nH]n4)cc32)C1)c1cc(Cl)ccc1OC(F)F [compound 51]
< 0.1	CO[C@H]1C[C@H](NC(=O)c2cc(Cl)ccc2F)C[C@H](n2c(-c3ccccc3OCCO)nc3cnc(-c4ncco4)cc32)C1 [Example 124, 5-chloro-2-fluoro-N-((1R,3S,5S)-3-(2-(2-(2-hydroxyethoxy)phenyl)-6-(oxazol-2-yl)-1H-imidazo[4,5-c]pyridin-1-yl)-5-methoxycyclohexyl)benzamide]
0.5 to 1	COc1ccc(Cl)cc1C(=O)N[C@H]1C[C@@H](n2c(-c3ccccc3F)nc3cnc(-c4nc[nH]n4)cc32)CN(C)C1 [Example 135, 5-chloro-N-((3S,5R)-5-(2-(2-fluorophenyl)-6-(1H-1,2,4-triazol-3-yl)-1H-imidazo[4,5-c]pyridin-1-yl)-1-methylpiperidin-3-yl)-2-methoxybenzamide]
< 0.1	CO[C@H]1C[C@H](NC(=O)c2cc(F)ccc2F)C[C@H](n2c(-c3ccccc3OCCO)nc3cnc(-c4ncco4)cc32)C1 [Example 123, 2,5-difluoro-N-((1R,3S,5S)-3-(2-(2-(2-hydroxyethoxy)phenyl)-6-(oxazol-2-yl)-1H-imidazo[4,5-c]pyridin-1-yl)-5-methoxycyclohexyl)benzamide]
> 1	CN1C[C@@H](NC(=O)c2cc(F)ccc2F)C[C@@H](n2c(-c3ccccc3OCCO)nc3cnc(-c4ncco4)cc32)C1 [Example 159, 2,5-difluoro-N-((3S,5R)-5-(2-(2-(2-hydroxyethoxy)phenyl)-6-(oxazol-2-yl)-1H-imidazo[4,5-c]pyridin-1-yl)-1-methylpiperidin-3-yl)benzamide]
0.1 to 0.5	CO[C@H]1C[C@@H](NC(=O)c2cc(F)ccn2)C[C@@H](n2c(-c3ccccc3F)nc3cnc(-c4nc[nH]n4)cc32)C1 [Example 115, 4-fluoro-N-((1S,3R,5S)-3-(2-(2-fluorophenyl)-6-(1H-1,2,4-triazol-3-yl)-1H-imidazo[4,5-c]pyridin-1-yl)-5-methoxycyclohexyl)picolinamide]
0.5 to 1	CN1C[C@@H](N2Cc3ccc(F)cc3C2=O)C[C@@H](n2c(-c3ccccc3OCCO)nc3ccc(-c4ncccn4)cc32)C1 [Example 244, 6-fluoro-2-((3S,5R)-5-(2-(2-(2-hydroxyethoxy)phenyl)-6-(pyr-imidin-2-yl)-1H-benzo[d]imid-azol-1-yl)-1-methylpiperidin-3-yl)isoindolin-1-one]
< 0.1	CO[C@H]1C[C@H](NC(=O)c2cc(F)ccn2)C[C@H](n2c(-c3ccccc3OCCO)nc3ccc(-c4ncccn4)cc32)C1 [Example 224, 4-fluoro-N-((1R,3S,5S)-3-(2-(2-(2-hydroxyethoxy)phenyl)-6-(pyrimidin-2-yl)-1H-benzo[d]imidazol-1-yl)-5-methoxycyclo-hexyl)picolinamide]
< 0.1	NCCOc1ccc(Cl)cc1C(=O)N[C@H]1CCC[C@@H](n2c(-c3ccccc3F)nc3cnc(-c4nc[nH]n4)cc32)C1 [Example 42, 2-(2-aminoethoxy)-5-chloro-N-((1S,3R)-3-(2-(2-fluorophenyl)-6-(1H-1,2,4-triazol-3-yl)-1H-imidazo[4,5-c]pyridin-1-yl)cyclohexyl)benzamide]
< 0.1	N[C@H]1[C@H](n2c(-c3ccccc3F)nc3ccc(-c4nc[nH]n4)cc32)CCC[C@@H]1N1Cc2ccc(Cl)cc2C1=O [Example 242, 2-((1S,2S,3R)-2-amino-3-(2-(2-fluorophenyl)-6-(1H-1,2,4-triazol-3-yl)-1H-benzo[d]imidazol-1-yl)cyclohexyl)-6-chloroisoindolin-1-one]
